# Assay results published in ChEMBL document CHEMBL1201862, “PubChem BioAssay data set” (2004).
# Activity calls are given as the source filed them.
# Key:
# Phospholipase A2 = Phospholipase A2 (Homo sapiens, UniProt P04054); format: functional;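 note: confirmatory dose-response counterscreen on phospholipase A2, testing hits that came from an ultra-high-throughput screen for ATG4B inhibitors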
# Protein RecA = target: T1, Protein RecA (Mycobacterium tuberculosis, UniProt P9WHJ3); experiment: Fluorescence Cell-Free Homogeneous Dose Retest to Identify Inhibitors of RecA-Intein Splicing Activity. [Related pubchem assays (depositor defined):AID2097, AID2223, AID489010, AID492950]; format: functional
# T1 sequence (P9WHJ3 whole entry): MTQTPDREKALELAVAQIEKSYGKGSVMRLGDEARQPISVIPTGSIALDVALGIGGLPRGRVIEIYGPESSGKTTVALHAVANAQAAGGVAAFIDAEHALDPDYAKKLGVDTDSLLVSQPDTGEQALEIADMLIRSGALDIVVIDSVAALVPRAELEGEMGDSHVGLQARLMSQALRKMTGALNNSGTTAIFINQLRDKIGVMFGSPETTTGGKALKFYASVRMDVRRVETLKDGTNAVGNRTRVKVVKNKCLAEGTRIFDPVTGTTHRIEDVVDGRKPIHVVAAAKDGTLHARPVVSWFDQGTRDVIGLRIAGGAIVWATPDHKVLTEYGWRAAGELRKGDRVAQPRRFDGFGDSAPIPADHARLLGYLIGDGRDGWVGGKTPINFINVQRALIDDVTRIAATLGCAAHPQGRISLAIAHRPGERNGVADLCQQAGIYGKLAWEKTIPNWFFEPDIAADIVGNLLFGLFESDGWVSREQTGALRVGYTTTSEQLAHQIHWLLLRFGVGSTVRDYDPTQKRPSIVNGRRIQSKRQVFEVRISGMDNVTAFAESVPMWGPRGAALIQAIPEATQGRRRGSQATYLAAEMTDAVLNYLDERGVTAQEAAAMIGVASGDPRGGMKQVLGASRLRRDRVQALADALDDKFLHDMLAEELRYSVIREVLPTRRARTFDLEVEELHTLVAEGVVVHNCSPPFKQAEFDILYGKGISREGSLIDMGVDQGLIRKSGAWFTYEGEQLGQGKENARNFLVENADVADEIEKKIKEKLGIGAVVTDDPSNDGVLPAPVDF
# Cysteine protease ATG4B = target: T2, Cysteine protease ATG4B (Homo sapiens, UniProt Q9Y4P1); format: functional;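 note: Fluorescence-based dose-response confirmation assay measuring inhibition of ATG4B activity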
# T2 sequence (Q9Y4P1 whole entry): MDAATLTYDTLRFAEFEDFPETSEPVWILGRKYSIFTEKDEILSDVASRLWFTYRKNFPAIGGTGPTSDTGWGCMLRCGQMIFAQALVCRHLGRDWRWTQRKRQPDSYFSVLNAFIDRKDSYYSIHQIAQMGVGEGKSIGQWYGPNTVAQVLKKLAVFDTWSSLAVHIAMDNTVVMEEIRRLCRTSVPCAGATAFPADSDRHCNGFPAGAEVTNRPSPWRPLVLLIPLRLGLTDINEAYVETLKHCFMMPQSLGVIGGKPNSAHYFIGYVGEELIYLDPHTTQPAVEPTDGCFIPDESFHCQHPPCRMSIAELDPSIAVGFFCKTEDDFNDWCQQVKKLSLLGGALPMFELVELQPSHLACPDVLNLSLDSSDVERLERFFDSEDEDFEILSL
# [1] = target: T3, Replicative DNA helicase DnaB (Mycobacterium tuberculosis, UniProt P9WMR3); experiment: DnaB intein splicing inhibitors, dose response, biochemical, cell-free fluorescence (AID 449749); format: functional
# T3 sequence (P9WMR3 whole entry): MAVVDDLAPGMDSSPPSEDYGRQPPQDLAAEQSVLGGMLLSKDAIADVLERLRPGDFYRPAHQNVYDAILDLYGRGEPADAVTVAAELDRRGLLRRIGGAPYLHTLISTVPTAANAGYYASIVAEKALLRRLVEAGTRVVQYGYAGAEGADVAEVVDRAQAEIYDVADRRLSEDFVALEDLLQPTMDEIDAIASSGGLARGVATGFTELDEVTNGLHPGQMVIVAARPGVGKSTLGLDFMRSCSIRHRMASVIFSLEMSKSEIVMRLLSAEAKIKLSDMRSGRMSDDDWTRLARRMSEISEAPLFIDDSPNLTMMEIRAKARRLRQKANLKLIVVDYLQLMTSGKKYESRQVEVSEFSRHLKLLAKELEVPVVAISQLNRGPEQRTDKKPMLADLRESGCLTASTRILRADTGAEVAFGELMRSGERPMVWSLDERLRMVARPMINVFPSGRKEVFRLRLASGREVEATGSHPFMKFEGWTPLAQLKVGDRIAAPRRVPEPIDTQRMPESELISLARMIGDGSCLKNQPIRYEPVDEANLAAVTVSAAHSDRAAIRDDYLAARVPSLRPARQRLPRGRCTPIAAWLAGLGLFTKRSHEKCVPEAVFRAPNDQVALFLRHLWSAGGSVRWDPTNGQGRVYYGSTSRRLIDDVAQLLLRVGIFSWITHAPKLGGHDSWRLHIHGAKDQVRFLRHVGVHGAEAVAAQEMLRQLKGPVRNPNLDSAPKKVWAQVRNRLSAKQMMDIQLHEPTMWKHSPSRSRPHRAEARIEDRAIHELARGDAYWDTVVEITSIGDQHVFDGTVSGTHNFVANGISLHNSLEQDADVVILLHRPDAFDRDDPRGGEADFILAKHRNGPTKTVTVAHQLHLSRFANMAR
# Cytochrome P450 2D6 = Cytochrome P450 2D6 (Homo sapiens, UniProt P10635);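 note: CYP2D6 member of a cytochrome P450 panel assay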
# Cytochrome P450 2C9 = Cytochrome P450 2C9 (Homo sapiens, UniProt P11712)
# Streptococcus = experiment: GAS UMAA2166 growth inhibition – luminescence, BacTiterGlo, counter-screen for streptokinase expression inhibitor project, dose response (AID 1915); format: functional, organism-based;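 note: potency for reduction of bacterial viability or growth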
# Aminopeptidase N = target: T4, Aminopeptidase N (Plasmodium falciparum FcB1/Columbia, UniProt O96935); experiment: malaria alanyl aminopeptidase activity blockers – biochemical, fluorogenic H-Leu-NHMec substrate, 1536-well (AID 1445); set-up: species or system Plasmodium falciparum 3D7, 3D7
# T4 sequence (O96935 whole entry): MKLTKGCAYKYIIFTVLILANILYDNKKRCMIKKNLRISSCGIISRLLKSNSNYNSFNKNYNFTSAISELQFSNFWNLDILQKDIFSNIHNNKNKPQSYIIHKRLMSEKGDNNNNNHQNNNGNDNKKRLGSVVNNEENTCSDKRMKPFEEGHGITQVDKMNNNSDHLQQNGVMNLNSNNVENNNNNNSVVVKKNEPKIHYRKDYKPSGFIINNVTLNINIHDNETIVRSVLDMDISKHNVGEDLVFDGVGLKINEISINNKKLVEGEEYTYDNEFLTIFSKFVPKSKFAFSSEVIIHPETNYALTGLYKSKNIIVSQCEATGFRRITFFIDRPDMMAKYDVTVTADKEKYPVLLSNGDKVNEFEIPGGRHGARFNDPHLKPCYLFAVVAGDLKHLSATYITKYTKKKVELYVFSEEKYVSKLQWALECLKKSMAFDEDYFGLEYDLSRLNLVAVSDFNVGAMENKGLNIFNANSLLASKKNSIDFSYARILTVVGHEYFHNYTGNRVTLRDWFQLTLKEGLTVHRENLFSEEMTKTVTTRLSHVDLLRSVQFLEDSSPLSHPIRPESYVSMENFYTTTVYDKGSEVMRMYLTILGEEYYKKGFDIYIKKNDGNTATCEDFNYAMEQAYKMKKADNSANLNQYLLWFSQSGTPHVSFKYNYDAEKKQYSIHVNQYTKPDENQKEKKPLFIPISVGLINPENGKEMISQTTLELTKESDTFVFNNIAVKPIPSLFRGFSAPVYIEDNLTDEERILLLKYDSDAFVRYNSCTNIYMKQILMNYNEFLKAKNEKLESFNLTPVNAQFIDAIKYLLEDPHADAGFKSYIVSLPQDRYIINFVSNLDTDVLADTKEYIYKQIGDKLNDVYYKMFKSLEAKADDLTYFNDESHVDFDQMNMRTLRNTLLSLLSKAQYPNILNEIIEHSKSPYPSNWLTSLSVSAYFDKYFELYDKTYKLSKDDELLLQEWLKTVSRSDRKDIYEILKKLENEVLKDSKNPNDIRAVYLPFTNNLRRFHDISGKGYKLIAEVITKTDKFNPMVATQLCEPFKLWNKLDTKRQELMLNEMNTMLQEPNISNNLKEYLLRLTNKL
# [2] = tested on: Streptococcus sp. 'group A'; experiment: Streptococcus pyogenes SK(-)GAS viability under kanamycin – luminescence, BacTiterGlo, confirmation, counter-screen for streptokinase expression inhibitor project, dose response (AID 1900); format: functional, organism-based
# Streptokinase A = target: T5, Streptokinase A (Streptococcus pyogenes serotype M1, UniProt P10520); experiment: viability-normalized secreted streptokinase activity reduction – plasminogen activation absorbance, OD405, dose response (AID 1914); format: functional, Streptococcus pyogenes M1 GAS;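 note: secreted streptokinase activity via plasminogen activation per viability signal from cell pellet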
# T5 sequence (P10520 whole entry): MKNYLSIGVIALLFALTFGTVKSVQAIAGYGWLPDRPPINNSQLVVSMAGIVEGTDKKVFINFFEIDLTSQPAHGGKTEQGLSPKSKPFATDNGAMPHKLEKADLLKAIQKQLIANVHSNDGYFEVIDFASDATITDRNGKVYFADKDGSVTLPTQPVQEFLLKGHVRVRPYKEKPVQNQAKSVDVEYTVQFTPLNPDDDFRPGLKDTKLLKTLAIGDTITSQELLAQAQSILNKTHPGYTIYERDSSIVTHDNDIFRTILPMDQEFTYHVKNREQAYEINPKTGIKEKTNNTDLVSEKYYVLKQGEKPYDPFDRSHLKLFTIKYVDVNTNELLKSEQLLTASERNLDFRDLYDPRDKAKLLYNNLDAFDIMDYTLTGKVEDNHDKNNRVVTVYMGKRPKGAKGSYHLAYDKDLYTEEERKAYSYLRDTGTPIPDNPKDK
# [3] = reduction of Shn3 3'UTR-driven luciferase in osteoblasts – cell-based, Clone20 osteoblasts, firefly luciferase, cherry-picked, dose response (AID 624132); format: functional;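 note: firefly luciferase luminescence from reporter carrying the Shn3 3'UTR in osteoblasts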
# [4] = loss of viability in HepG2 cells – cell-based, CellTiter-Glo, cherry-picked, cytotoxicity control for Shn3 inhibitor project, dose response (AID 624134); format: functional
# [5] = non-specific 3'UTR reporter inhibition in Clone20-Shn3RL – cell-based, Renilla luciferase, cherry-picked, counter-screen for Shn3 inhibitor project, dose response (AID 624133); format: functional
# [6] = target: Glyceraldehyde-3-phosphate dehydrogenase (Homo sapiens, UniProt P04406)
# [7] = HEK-293T cell viability reduction – luminescence, B-cell screen hits, cytotoxicity control for BCR NF-kB inhibitor project, dose response (AID 489021); format: functional, cell-based;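 note: HEK-293T cells carrying an NF-kB luciferase reporter; cells exposed to compound for about 14 hours before viability readout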
# [8] = viability of PTEN-deleted HCT116 cells – cell-based, HCT116 PTEN knockout, dose response (AID 1047); format: functional;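 note: HCT116 colon tumor cells with PTEN knocked out; cells exposed to compound for 60 hours before readout; potency for loss of cell viability measured by luminescence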
# Paired box protein Pax-8 = Paired box protein Pax-8 (Homo sapiens, UniProt Q06710); experiment: PAX8 transcriptional activity inhibition in RMG-I – RMG-I cells, luciferase, cherry-pick, dose response (AID 687027); format: functional, cell-based;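 note: luciferase reporter driven by Pax8 target thyroperoxidase promoter measured by SteadyGlo luminescence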
# [9] = viability of HCT116 lacking mutant beta-catenin – cell-based, human colon tumor, dose response (AID 1045); format: functional;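 note: HCT116 colon tumor cells with beta catenin knocked out; cells exposed to compound for 60 hours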
# [10] = microbe, parasite or virus in culture; format: functional; details: Mycobacterium tuberculosis
# Chain of Phospholipase A2 (P04054 whole entry): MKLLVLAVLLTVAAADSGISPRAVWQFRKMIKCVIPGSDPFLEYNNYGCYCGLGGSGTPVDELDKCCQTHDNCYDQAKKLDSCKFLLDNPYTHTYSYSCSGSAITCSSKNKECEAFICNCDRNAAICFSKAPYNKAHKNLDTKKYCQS
# Chain of Cytochrome P450 2C9 (P11712 whole entry): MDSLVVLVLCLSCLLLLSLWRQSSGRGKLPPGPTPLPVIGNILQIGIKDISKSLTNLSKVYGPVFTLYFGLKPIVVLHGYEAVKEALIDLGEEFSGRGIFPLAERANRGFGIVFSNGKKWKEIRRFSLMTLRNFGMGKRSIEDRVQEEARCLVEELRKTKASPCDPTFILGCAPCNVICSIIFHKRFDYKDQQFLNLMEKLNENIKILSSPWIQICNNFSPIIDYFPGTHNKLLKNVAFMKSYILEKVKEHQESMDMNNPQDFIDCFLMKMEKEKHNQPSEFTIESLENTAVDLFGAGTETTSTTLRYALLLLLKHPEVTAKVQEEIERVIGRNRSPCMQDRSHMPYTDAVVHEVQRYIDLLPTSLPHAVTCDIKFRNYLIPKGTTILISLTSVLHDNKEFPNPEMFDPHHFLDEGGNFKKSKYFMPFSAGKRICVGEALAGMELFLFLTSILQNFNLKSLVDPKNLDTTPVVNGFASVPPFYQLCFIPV
# Chain of Cytochrome P450 2D6 (P10635 whole entry): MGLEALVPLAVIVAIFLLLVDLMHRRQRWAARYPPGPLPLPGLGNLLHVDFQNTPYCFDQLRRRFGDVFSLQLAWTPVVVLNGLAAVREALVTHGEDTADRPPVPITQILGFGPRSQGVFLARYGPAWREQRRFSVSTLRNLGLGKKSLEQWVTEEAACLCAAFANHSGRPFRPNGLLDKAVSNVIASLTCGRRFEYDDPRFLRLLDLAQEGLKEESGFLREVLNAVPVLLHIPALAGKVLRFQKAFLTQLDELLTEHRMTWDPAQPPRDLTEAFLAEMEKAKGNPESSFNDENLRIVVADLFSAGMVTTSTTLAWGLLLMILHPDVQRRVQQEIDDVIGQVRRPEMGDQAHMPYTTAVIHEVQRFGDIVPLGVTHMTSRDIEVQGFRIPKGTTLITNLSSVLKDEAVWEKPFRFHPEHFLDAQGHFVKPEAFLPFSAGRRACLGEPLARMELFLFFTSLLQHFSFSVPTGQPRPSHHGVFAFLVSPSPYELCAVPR
# Chain of Paired box protein Pax-8 (Q06710 whole entry): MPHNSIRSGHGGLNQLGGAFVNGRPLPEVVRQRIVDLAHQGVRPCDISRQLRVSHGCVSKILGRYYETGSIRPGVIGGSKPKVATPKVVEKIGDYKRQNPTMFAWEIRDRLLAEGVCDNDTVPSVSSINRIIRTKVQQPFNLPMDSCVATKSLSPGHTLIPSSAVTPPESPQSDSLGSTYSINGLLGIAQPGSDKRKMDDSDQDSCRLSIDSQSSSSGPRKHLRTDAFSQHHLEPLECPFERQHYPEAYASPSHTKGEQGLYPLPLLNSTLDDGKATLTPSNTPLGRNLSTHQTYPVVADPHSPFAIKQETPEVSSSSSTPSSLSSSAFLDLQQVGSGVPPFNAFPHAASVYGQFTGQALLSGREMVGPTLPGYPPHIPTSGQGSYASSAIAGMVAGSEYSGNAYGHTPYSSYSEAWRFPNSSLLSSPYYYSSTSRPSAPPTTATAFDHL
# Chain of Glyceraldehyde-3-phosphate dehydrogenase (P04406 whole entry): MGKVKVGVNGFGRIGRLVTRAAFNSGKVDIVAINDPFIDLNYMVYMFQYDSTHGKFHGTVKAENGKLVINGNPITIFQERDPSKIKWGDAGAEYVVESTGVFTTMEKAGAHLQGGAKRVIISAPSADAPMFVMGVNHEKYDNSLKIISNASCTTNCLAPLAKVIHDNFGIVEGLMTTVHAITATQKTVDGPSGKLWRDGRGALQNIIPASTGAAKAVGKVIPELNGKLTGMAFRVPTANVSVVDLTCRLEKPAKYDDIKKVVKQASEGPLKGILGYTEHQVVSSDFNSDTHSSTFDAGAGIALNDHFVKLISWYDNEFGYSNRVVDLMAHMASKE
compound,measurement,setting,value
Cc1ccc(-c2[nH]nc3c2C(c2ccc(OC(=O)N4CCOCC4)cc2)C(C#N)=C(N)O3)cc1 (stereo not given),IC50,Phospholipase A2,11.7 µM (active)
same,EC50,Protein RecA,1.18 µM (active)
same,IC50,Cysteine protease ATG4B,15.8 µM (active)
same,AC50,[1],4.61 µM (active)
CC(C)(C)c1ccc(C(=O)C2CCCN(C(=O)c3ccccn3)C2)cc1 (stereo not given),IC50,Phospholipase A2,11.5 µM (active)
same,IC50,Cysteine protease ATG4B,15.1 µM (active)
O=C(c1ccc(-n2c(SCc3cccc(F)c3)nc3ccccc3c2=O)cc1)N1CCOCC1,IC50,Phospholipase A2,8.49 µM (active)
same,IC50,Cysteine protease ATG4B,10.1 µM (active)
Cc1cccc(NC(S)=NNC(=O)c2csc3c2CCCC3)c1,AC50,Cytochrome P450 2D6,25.1 µM (inconclusive)
same,IC50,Phospholipase A2,13.2 µM (active)
same,AC50,Cytochrome P450 2C9,inconclusive
same,IC50,Cysteine protease ATG4B,11.2 µM (active)
NS(=O)(=O)c1ccc(N2N=C(c3ccccc3)CC2c2ccc(F)cc2)cc1 (stereo not given),EC50,Streptococcus,18.7 µM (active)
same,IC50,Aminopeptidase N,62 µM (active)
same,EC50,[2],6.96 µM (active)
same,EC50,Streptokinase A,55.2 µM (active)
CCCc1nc2sc3c(c2c(=O)n1NC(=O)c1ccco1)CC(C)(C)OC3,IC50,Aminopeptidase N,36.1 µM (active)
Cc1ccc(NC(=O)CSc2nn(-c3ccccc3)c(=S)s2)cc1S(=O)(=O)N(C)C,AC50,[3],5.82 µM (active)
same,AC50,[4],45.6 µM (active)
same,AC50,[5],55.6 µM (active)
Cc1ccccc1C1C2=C(O)c3ccccc3C2=Nc2nn(-c3ccccc3)c(O)c21 (stereo not given),IC50,Aminopeptidase N,40.4 µM (active)
O=C(O)Cc1ccc(/C(=N\O)c2cccs2)s1,IC50,[6],> 100 µM (not active)
O=C(COc1ccccc1/C=C\c1nc(O)c([N+](=O)[O-])c(O)n1)Nc1ccccc1,IC50,Aminopeptidase N,49 µM (active)
NC(c1csc(NC(=O)Nc2cccc(C(F)(F)F)c2)n1)C1CCCCC1 (stereo not given),AC50,[3],4.81 µM (active)
same,AC50,[4],11.3 µM (active)
same,AC50,[5],7.42 µM (active)
O=C(N/N=C/c1cccnc1)c1cc(-c2ccccc2OCc2ccccc2)[nH]n1,IC50,Aminopeptidase N,31.2 µM (active)
same,IC50,[7],53.1 µM (inactive)
COC(=O)N/N=C/c1cn(CCCOc2ccc(C)cc2)c2ccccc12,IC50,Phospholipase A2,7.39 µM (active)
same,IC50,Cysteine protease ATG4B,10.3 µM (active)
C=C1C(=O)[C@@]23[C@H](O)C[C@@H]4C(C)(C)CC[C@H](O)[C@@]4(C)[C@@H]2CC[C@@H]1[C@H]3O [KAMEBANIN],AC50,[3],1.29 µM (active)
same,EC50,[8],1.17 µM (active)
same,AC50,Paired box protein Pax-8,1.16 µM (active)
same,AC50,[4],26.3 µM (active)
same,EC50,[9],1.02 µM (active)
same,AC50,[5],4.85 µM (active)
same,CC50,[10],5.73 µM (active)
O=C1OC[C@H](Cc2ccc3c(c2)OCO3)/C1=C\c1ccc2c(c1)OCO2 [SAVININ],AC50,[3],2.66 µM (active)
same,AC50,[4],59.8 µM (active)
same,AC50,[5],23.1 µM (active)
